Experimental data published in US8071575B2, “Methods and compounds for the targeted delivery of agents to bone for interaction therewith” (priority 2007, dated 2011).

Assays:
[1] = Hydroxyapatite (HA) Binding Assay; details: 10^−5 M analyte, 50 mM Tris-HCl pH 7.4, 1% DMSO; adjusted such that tetracycline = 100
Protocol: A Hydroxyapatite (HA) Binding Assay is used to determine whether compounds have an affinity for bone. Compounds of the presently-disclosed subject matter having a Bone Targeting Portion (RT) are studied using the HA Binding Assay. A 10^−3 M solution of each analyte was made in 100% dimethylsulfoxide (DMSO). A 100 fold dilution was then made to form a 10^−5 M solution in 50 mM Tris-HCl buffer, pH 7.4, 1% DMSO. Tetracycline was used as a reference analyte and approximately 50% was adsorbed to HA at the concentration of 10^−5 M. The HA slurry was 0.5 g/100 mL 50 mM Tris-HCl buffer, 1% DMSO.
For each analyte, two samples were prepared. For one sample, 1 mL of 10^−5 M analyte and 100 μL 50 mM Tris-HCl buffer, 1% DMSO was pipetted into a microcentrifuge tube. For the second sample, 1 mL of 10^−5 M analyte and 100 μL of the HA slurry was pipetted into a microcentrifuge tube. The samples were mixed gently by inversion for 4 minutes and then centrifuged at 12,000 g for 3 minutes to sediment the HA contained in those samples. The supernatant was transferred to another microcentrifuge tube.
An electronic spectral scan (ultraviolet-visible) from 220-520 nm was obtained for each analyte using a Varian Cary 300 Bio Scan. The blank was 50 mM Tris-HCl buffer, 1% DMSO. The wavelength of maximum absorbance (λmax) was determined, and the extinction coefficient (ε) was calculated using the Beer-Lambert Law.
The absorbance of the samples incubated with HA was measured at λmax, and the molar concentration of the analyte was then determined using the Beer-Lambert Law and the previously calculated extinction coefficient. The fraction adsorbed to HA for each sample was subsequently calculated.

[2] = test system: OVX rats; test: Volume fraction, ex vivo micro-computed tomography of tibia; format: in vivo, Sprague-Dawley female rats; details: present-tense example, no data or figure
Protocol: (§1) Animals. Six month old, bilaterally ovariectomized (OVX) or sham operated Sprague-Dawley female rats (Harlan Laboratories, Indianapolis, Ind.) were maintained at the University of Louisville Research Resources Center at 22° C. with a 12-h light/dark cycle and ad libitum access to tap water and rodent chow (Purina Laboratory Rodent Diet 5001). All animal procedures were approved by the Institutional Animal Care and Use Committee, which is certified by the American Association for Accreditation of Laboratory Animal Care.
(§2) In vivo experiments were conducted in order to investigate the efficacy of compounds of the presently-disclosed subject matter. In all of the experiments, OVX and sham operated rats were randomly divided into groups of 5-7 animals. In all of the studies experimental groups included: i) Sham-operated control (euthanized six weeks post surgery as a pretreatment control), ii) OVX control (euthanized six weeks post surgery as a pretreatment control), iii) Sham control receiving vehicle, iv) OVX control receiving vehicle, v) OVX receiving 17-ethinyl estradiol (equimolar concentration with a selected test compound), vi) OVX receiving alendronate (1.6 mg/kg), and vii) OVX receiving parathyroid hormone 1-34 (PTH) ([…]). 17-ethinyl estradiol (17 EE) is a free estrogenic agent known to be orally active, and can serve as an example of an anti-catabolic agent. Alendronate (Alen) is a bisphosphonate that is currently used to treat osteoporosis (e.g., Fosamax®, Merck & Co., Inc,), and can serve as an example of an anti-catabolic agent. Parathyroid hormone 1-34 (PTH) is an agent that can serve as an example of an anabolic agent. All compounds and vehicle (1% DMSO in corn oil) were administered three times per week orally by gavage except for PTH which was administered via a subcutaneous injection in a volume of 0.5 ml/kg body mass thrice per week. Compound administration was initiated 6 weeks following surgery and lasted for 6 weeks (18 doses total).
(§3) Compounds of the presently-disclosed subject matter were orally administered to OVX rats at various doses. As indicated above all BTE's were administered three times per week for 6 weeks.
(§4) Following 6 weeks of treatment, blood was obtained from each animal via cardiac puncture following an overnight fast and animals were subsequently euthanized via carbon dioxide asphyxiation. Blood was centrifuged immediately and the obtained serum samples were aliquoted and stored at −70° C. prior to analysis. Uteri were removed and fresh weights were obtained. Uterine masses were normalized to body mass at the end of the experiment. The left and right femora and left and right tibiae were subsequently collected from each animal, cleaned of soft tissue, and stored in saline at 4° C. prior to analysis.
Volume Fraction—Ex vivo micro-computed tomography (μCT). Volume fraction is a representative value for the amount of bone that occupies a given volume or space. High resolution image data were collected using a customized micro-CT system (ACTIS 150/225 system, BIR Inc., Lincolnshire, Ill.). The metaphysis of each right tibia was scanned over a three millimeter range and three-dimensional images were reconstructed. Data were subsequently processed to reveal the volume fraction (BV/TV) occupied by trabecular (cancellous) bone tissue, cortical bone tissue, and whole bone tissue. The resulting data provides information regarding the density of whole bone, cortical bone, and trabecular bone.

[3] = test system: OVX rats; test: Bone mechanical competence indentation test; format: in vivo, Sprague-Dawley female rats; details: present-tense example, no data or figure
Protocol: as §1, §2, §3, §4
Bone Mechanical Competence Indentation Test. After sacrifice, the left tibiae were trimmed to expose the cancellous bone of the proximal tibial metaphysis and an indentation test was performed by advancing a flat-tipped cylindrical post (1.5 mm diameter) axially into the cut surface to measure the compressive strength of the cancellous bone structure.

[4] = test system: ICR Swiss mice; test: Stimulation of periosteal bone formation in a mouse calvarial injection model; format: in vivo; details: present-tense example, no data or figure
Protocol: Stimulation of Periosteal Bone Formation in a Mouse Calvarial Injection Model. The anabolic (bone formation) of compounds of the presently-disclosed subject matter are evaluated in the mouse calvarial injection model. Briefly, 4-week-old ICR Swiss mice are injected subcutaneously over the surface of the calvariae with compounds of the presently-disclosed subject matter at concentrations of 0, 1, 3, and 10 mg/kg/day for 5 days (twice a day). Microtubule inhibitor TN-16 (5 mg/kg/day for 2 days, twice a day) are used as a positive control. Mice are sacrificed two weeks after the injections are completed. Dissected calvarial samples are fixed in 10% phosphate-buffered formalin for 2 days, decalcified in 10% EDTA for 2 weeks and then embedded in paraffin. Histological sections are cut and stained with H&E and orange G. New woven bone formation (new bone area) is quantified by histomorphometry using the OsteoMeasure system (OsteoMetrics Inc., Atlanta, Ga.).

Row | Structure (SMILES) | Binding Index (binding to hydroxyapatite) [1] | volume fraction (BV/TV) of trabecular, cortical and whole bone tissue [2] | bone strength (indentation test) [3] | new bone area (calvarial injection model) [4]
1 | COc1ccc(NC(=O)COCCOCCNC(=O)CCOC2CCC3C4CCc5cc(O)ccc5C4CCC23C)c(O)c1C(N)=O (centres unmarked) [Formula 123] | 160 | increase bone density | increase bone strength | affect new bone area
2 | COc1ccc(NC(=O)CCC(=O)OC2CCC3C4CCC5=CC(=O)CCC5(C)C4CCC23C)c(O)c1C(N)=O (centres unmarked) [Formula 33] | 140 | increase bone density | increase bone strength | increase new bone area
